Results taken from paper PMC10408569, “Recruitment of hexahydroquinoline as anticancer scaffold targeting inhibition of wild and mutants EGFR (EGFR^WT, EGFR^T790M, and EGFR^L858R)” (Journal of Enzyme Inhibition and Medicinal Chemistry, 2023).

How the values were obtained:
Assay in all cases: NCI-60 anticancer screening (SRB)
Format in all cases: cell-based
RXF 393 = settings: Homo sapiens; RXF 393, renal cancer; one dose 10 μM; read-out: Growth Inhibition Percentage (GI %)
UO-31 = settings: Homo sapiens; UO-31, renal cancer; one dose 10 μM; read-out: Growth Inhibition Percentage (GI %)
MOLT-4 = settings: Homo sapiens; MOLT-4, leukemia; one dose 10 μM; read-out: Growth Inhibition Percentage (GI %)
SK-OV-3 = settings: Homo sapiens; SK-OV-3, ovarian cancer; one dose 10 μM; read-out: Growth Inhibition Percentage (GI %)
NCI-H322M = settings: Homo sapiens, NSC lung cancer, one dose 10 μM, read-out: Growth Inhibition Percentage (GI %)
HL-60(TB) = settings: Homo sapiens, leukemia, one dose 10 μM, read-out: Growth Inhibition Percentage (GI %)
PC-3 = settings: Homo sapiens; PC-3, prostate cancer; one dose 10 μM; read-out: Growth Inhibition Percentage (GI %)
SK-MEL-28 = settings: Homo sapiens; SK-MEL-28, melanoma; one dose 10 μM; read-out: Growth Inhibition Percentage (GI %)
A549/ATCC = settings: Homo sapiens; A549/ATCC, NSC lung cancer; one dose 10 μM; read-out: Growth Inhibition Percentage (GI %)
KM 12 = settings: Homo sapiens, KM12; KM 12, colon cancer; one dose 10 μM; read-out: Growth Inhibition Percentage (GI %)
SW-620 = settings: Homo sapiens; SW-620, colon cancer; one dose 10 μM; read-out: Growth Inhibition Percentage (GI %)
HCT-15 = settings: Homo sapiens; HCT-15, colon cancer; one dose 10 μM; read-out: Growth Inhibition Percentage (GI %)
NCI/ADR-RES = settings: Homo sapiens, ovarian cancer, one dose 10 μM, read-out: Growth Inhibition Percentage (GI %)
MDA-MB-468 = settings: Homo sapiens; MDA-MB-468, breast cancer; one dose 10 μM; read-out: Growth Inhibition Percentage (GI %)
HS 578T = settings: Homo sapiens; HS 578T, breast cancer; one dose 10 μM; read-out: Growth Inhibition Percentage (GI %)
BT-549 = settings: Homo sapiens; BT-549, breast cancer; one dose 10 μM; read-out: Growth Inhibition Percentage (GI %)
MCF7 = settings: Homo sapiens; MCF7, breast cancer; one dose 10 μM; read-out: Growth Inhibition Percentage (GI %)
COLO 205 = settings: Homo sapiens; COLO 205, colon cancer; one dose 10 μM; read-out: Growth Inhibition Percentage (GI %)
OVCAR-8 = settings: Homo sapiens; OVCAR-8, ovarian cancer; one dose 10 μM; read-out: Growth Inhibition Percentage (GI %)
HCC-2998 = settings: Homo sapiens; HCC-2998, colon cancer; one dose 10 μM; read-out: Growth Inhibition Percentage (GI %)
MDA-MB-231 = settings: Homo sapiens; MDA-MB-231, breast cancer; one dose 10 μM; read-out: Growth Inhibition Percentage (GI %)
OVCAR-3 = settings: Homo sapiens; OVCAR-3, ovarian cancer; one dose 10 μM; read-out: Growth Inhibition Percentage (GI %)
UACC-62 = settings: Homo sapiens; UACC-62, melanoma; one dose 10 μM; read-out: Growth Inhibition Percentage (GI %)
TK-10 = settings: Homo sapiens; TK-10, renal cancer; one dose 10 μM; read-out: Growth Inhibition Percentage (GI %)
MDA-MB-435 = settings: Homo sapiens; MDA-MB-435, melanoma; one dose 10 μM; read-out: Growth Inhibition Percentage (GI %)
OVCAR-4 = settings: Homo sapiens; OVCAR-4, ovarian cancer; one dose 10 μM; read-out: Growth Inhibition Percentage (GI %)
CCRF-CEM = settings: Homo sapiens, leukemia, one dose 10 μM, read-out: Growth Inhibition Percentage (GI %)

Row | SMILES | inhibition at 10 µM (RXF 393) | inhibition at 10 µM (UO-31) | inhibition at 10 µM (MOLT-4) | inhibition at 10 µM (SK-OV-3) | inhibition at 10 µM (NCI-H322M) | inhibition at 10 µM (HL-60(TB)) | inhibition at 10 µM (PC-3) | inhibition at 10 µM (SK-MEL-28) | inhibition at 10 µM (A549/ATCC) | inhibition at 10 µM (KM 12) | inhibition at 10 µM (SW-620) | inhibition at 10 µM (HCT-15) | inhibition at 10 µM (NCI/ADR-RES) | inhibition at 10 µM (MDA-MB-468) | inhibition at 10 µM (HS 578T) | inhibition at 10 µM (BT-549) | inhibition at 10 µM (MCF7) | inhibition at 10 µM (COLO 205) | inhibition at 10 µM (OVCAR-8) | inhibition at 10 µM (HCC-2998) | also measured
1 | CCOC(=O)C1=C(N)N(c2ccccc2)C2=C(C(=O)CC(C)(C)C2)C1c1ccccc1OC (racemic) [6g, (±)-Ethyl 2-amino-4–(2-methoxyphenyl)-7,7-dimethyl-5-oxo-1-phenyl-1,4,5,6,7,8-hexahydroquinoline-3-carboxylate] | < 10% | 26% | < 10% | < 10% | < 10% | < 10% | 11% | < 10% | < 10% | < 10% | < 10% | < 10% | < 10% | 11% | < 10% | < 10% | < 10% | < 10% | < 10% | < 10% | inhibition at 10 µM (MDA-MB-231): < 10%; inhibition at 10 µM (OVCAR-3): < 10%; inhibition at 10 µM (UACC-62): < 10%; inhibition at 10 µM (TK-10): < 10%; inhibition at 10 µM (MDA-MB-435): < 10%; inhibition at 10 µM (OVCAR-4): < 10%; inhibition at 10 µM (CCRF-CEM): < 10%
2 | CCOC(=O)C1=C(N)N(c2ccc(C)cc2)C2=C(C(=O)CC(C)(C)C2)C1c1ccc(Cl)cc1 (racemic) [8d, (±)-Ethyl 2-amino-4–(4-chlorophenyl)-7,7-dimethyl-1–(4-methylphenyl)-5-oxo-1,4,5,6,7,8-hexahydroquinoline-3-carboxylate] | < 10% | 16% | < 10% | < 10% | < 10% | 21% | 43% | < 10% | 14% | < 10% | 20% | 35% | < 10% | 18% | < 10% | < 10% | 35% | 23% | 13% | < 10% | inhibition at 10 µM (MDA-MB-231): < 10%; inhibition at 10 µM (OVCAR-3): 16%; inhibition at 10 µM (UACC-62): 24%; inhibition at 10 µM (TK-10): < 10%; inhibition at 10 µM (MDA-MB-435): < 10%; inhibition at 10 µM (OVCAR-4): < 10%; inhibition at 10 µM (CCRF-CEM): < 10%
3 | CCOC(=O)C1=C(N)N(c2ccc(C)cc2)C2=C(C(=O)CC(C)(C)C2)C1c1ccccc1Cl (racemic) [6b, (±)-Ethyl 2-amino-4–(2-chlorophenyl)-7,7-dimethyl-1–(4-methylphenyl)-5-oxo-1,4,5,6,7,8-hexahydroquinoline-3-carboxylate] | < 10% | 19% | < 10% | < 10% | < 10% | < 10% | 43% | < 10% | 13% | < 10% | 19% | 30% | < 10% | 20% | < 10% | 11% | 32% | 19% | 20% | < 10% | inhibition at 10 µM (MDA-MB-231): < 10%; inhibition at 10 µM (OVCAR-3): 17%; inhibition at 10 µM (UACC-62): 23%; inhibition at 10 µM (TK-10): < 10%; inhibition at 10 µM (MDA-MB-435): < 10%; inhibition at 10 µM (OVCAR-4): < 10%; inhibition at 10 µM (CCRF-CEM): < 10%
4 | CCOC(=O)C1=C(N)N(c2ccccc2)C2=C(C(=O)CC(C)(C)C2)C1c1ccc(F)cc1 (racemic) [8a, (±)-Ethyl 2-amino-4–(4-fluorophenyl)-7,7-dimethyl-5-oxo-1-phenyl-1,4,5,6,7,8-hexahydroquinoline-3-carboxylate] | < 10% | < 10% | < 10% | < 10% | < 10% | < 10% | < 10% | < 10% | < 10% | < 10% | < 10% | < 10% | < 10% | < 10% | < 10% | < 10% | < 10% | < 10% | < 10% | < 10% | inhibition at 10 µM (MDA-MB-231): < 10%; inhibition at 10 µM (OVCAR-3): < 10%; inhibition at 10 µM (UACC-62): < 10%; inhibition at 10 µM (TK-10): < 10%; inhibition at 10 µM (MDA-MB-435): < 10%; inhibition at 10 µM (OVCAR-4): < 10%; inhibition at 10 µM (CCRF-CEM): < 10%
